The values that follow come from US20190086391A1, “METHOD AND SYSTEM FOR CONTINUOUS BIOSENSING” (Yissum Research Development Company of the Hebrew …, priority 2016, published 2019).

The test system of one data set is isolated mitochondria. Briefly: Oxygen consumption rate of ADP-stimulated isolated mitochondria. Type of data set: biochemical. The following applies: 50 μM injected after ADP; no enzymatic activation. The method, then: Mitochondria were isolated using a Mitochondria Isolation Kit (Abcam, UK) per manufacturer instructions. Briefly, 10^7 cells were collected and ruptured using 30 strokes in a pre-cooled dounce homogenizer. Homogenate was centrifuged twice at 1,000×g for 10 minutes at 4° C. to remove debris, and finally at 12,000×g for 15 minutes at 4° C. Pellet containing the isolated mitochondria was resuspended in a protease inhibitor cocktail. Protein concentration was determined using Bradford. 20 μg of mitochondrial protein per well was plated in gelatin-coated SeaHorse XFp cell culture miniplate and centrifuged at 3,000×g for 20 minutes at 4° C. in mitochondrial assay solution (MAS) as previously described (29). Oxygen consumption rate (OCR) was measured by the XFp Extracellular Flux Analyzer (Seahorse Biosciences, USA). Mitochondrial activity was profiled by successive injections of ADP (Sigma-Aldrich, Israel) and 50 μM of troglitazone, rotenone or DMSO control.

Data set [1] can be described thus: Real-time oxygen uptake in perfused microwell bioreactor. Type of data set: cell-based, human. The following applies: human. As for the experimental part:
(§1) PDMS microwell inserts were sterilized with 70% EtOH and 30 min exposure to UV light prior to cell seeding. Cells were trypsinized, counted and centrifuged at 300×g for 5 min at 4° C. The pellet was then mixed with […] CPOx-50-RuP oxygen-sensing beads (Colibri Photonics, Germany) and resuspended in 100 μl of ice-cold solution of collagen type I (BD Biosciences, USA) for a final seeding density of 4×10^6 cells/ml. The PDMS microwell insert was placed on ice and coated with ice-cold collagen solution for 5 min to remove air bubbles. Then 100 μl of collagen type I suspension containing cells and oxygen-sensing beads was layered on top the wells and incubated for 10 min on ice. The low temperature prevented premature collagen polymerization and the induction of cellular stress response pathways. Afterwards, excess cell and microbead suspension was gently wiped off the microwell insert using a sterile glass coverslip leading to a concentration of 100,000 cells and 20 oxygen-sensing beads per well. Variance in cell density between individual wells and between bioreactors was less than 10% measured by DNA content. The inoculated microwell insert was then incubated for 5 min at 37° C. to polymerize the collagen. Following polymerization, the insert was immersed in 5 ml of cell culture medium and incubated for 20 min at 37° C. prior to being sealed in the bioreactor housing. Bioreactors were then placed in a climate control chamber (Evotec, Germany) on an IX81 fluorescence microscope (Olympus, Japan). Bioreactors were continuously perfused with cell culture medium noted above supplemented with 10 mM HEPES and 1% DMSO at a flow rate of 2 μl/min. The automated and motorized microscope stage was equipped with a holder for three microreactors, allowing three experiments to run simultaneously.
(§2) Troglitazone (T2573), and rotenone (R8875) were purchased from Sigma-Aldrich (Schnelldorf, Germany) and diluted from H2O or DMSO stock concentration 1:1000 into HepG2/C3A culture medium. Exposure onset was calculated to within ±1 min based on volumetric flow rate, considering the length of the tubing and bioreactor volume.
(§3) Real-time oxygen measurements were performed optically using lifetime-based luminescencequenching as previously described (11). […] Excited by a sinusoidal amplitude-modulated 532 nm LED source, the microbeads emit a sinusoidal amplitudemodulated light at 605 nm that is shifted in phase due to oxygen quenching (FIG. 2D). To overcome the superposition of in-phase background fluorescence that alters the phase of the detected signal, a 53.5 kHz and 31.3 kHz two-frequency phase modulation was used. This allowed screening out background interference (26-28). Measurements were carried out by averaging 5 consecutive 3 second exposures, followed by 17 seconds intervals, for a total of 100 seconds. Measurements were taken every 15 minutes for as long as 28 days with no phototoxicity, signal drift, or relevant loss of signal intensity. The apparatus consists of the OPAL package (Colibri Photonics, Germany) that is comprised of a control module, 532 nm LED, and a photomultiplier (PMT) detector mounted on the ocular of an […] Olympus microscope (Olympus, Japan). A filter cube with 531/40 (Ex), 607/70 (Em) was inserted in the optical light path during measurements.

In data set [2] the test system is HepG2/C3A cells. Described as above. The data set is classed as cell-based, human. As for the experimental part:
as §1, §2, §3

The subject of data set [3] is HepG2/C3A cells. Briefly: TUNEL apoptosis assay. Type of data set: cell-based, human. To be noted: 24 hours exposure to 200 μM. The method, then: (§4) PMDS microwell inserts were removed from the bioreactor following 24 hours exposure to rotenone or troglitazone. Cholestasis was evaluated using 5(6)-carboxy-2′, 7′-dichlorofluorescein diacetate (CDFDA) cell permeable dye which is metabolized to fluorescent CDF and secreted to active bile canaliculi by active multidrug resistance-associated protein 2 (MRP2). Briefly, cells were incubated with 2 μg/mL of CDFDA and 1 μg/mL of Hoechst 33342 for 20 min, and washed with PBS. Number of bile canaliculi foci was normalized for number of Hoechst-labeled nuclei. Apoptosis was evaluated using DeadEnd™ fluorometric TUNEL system (Promega, USA) according to manufacturer directions. Briefly, cells were fixed in 4% paraformaldehyde, permeabilized and exposed to fluorescein-12-dUTP and terminal deoxynucleotidyl transferase (TdT), dyeing apoptotic nuclei green. The reaction was subsequently stopped and the cells counterstained for Hoechst. A percent apoptotic nucleus was calculated by dividing the number of TUNEL to Hoechst positive nuclei.

The test system of data set [4] is HepG2/C3A cells. Briefly: Quantification of ATP/ADP ratio. Type of data set: cell-based, human. The following applies: 50 μM. As for the experimental part: Intracellular ATP and ADP quantification was carried out using Abeam ADP/ATP Assay Kit (#ab65313), according to manufacturer's instructions. […] Cells were incubated in nucleotide releasing buffer for 5 min at room temperature, with gentle shaking. Background bioluminescence reading of the reaction mix was taken for calibration, followed by 2 min incubation of 50 μl sample solution in each reaction well, and a bioluminescence reading to measure cellular ATP content. ADP converting enzyme was then added, as instructed, following incubation of 2 min at room temperature to measure total ADP+ATP.

Another data set has as its system HepG2/C3A organoids. Briefly: LIVE/DEAD cell viability staining. The data set is classed as cell-based. To be noted: 50 μM, 24 hours. The method, then: Unless otherwise noted, cell viability was determined utilizing LIVE/DEAD Cytotoxicity kit (Molecular Probes, Eugene, Oreg.) according to manufacturer's instructions. In brief, cultures were incubated with 2 μM Calcein AM and 3 μM ethidium homodimer-1 for 25 minutes. Hydrolysis by functional intracellular esterases causes live cells to fluoresce green, while the punctured membranes of dead cells permit ethidium homodimer-1 to bind DNA and fluoresce red. Cellular viability was calculated by live to dead ratio and normalized to negative control.

For data set [5], the system named is HepG2/C3A cells. Briefly: CDFDA staining for cholestasis (CDF retention, MRP2). Type of data set: cell-based, human. The following applies: 24 hours exposure to 200 μM; due to inhibition of MRP2. The method, then: as §4

Several values for one entry are separate records, joined by “and”; a condition that tells them apart may be missing. Equal entries are not always repeated. Entries after “also recorded” stand apart in the source; their conditions may differ.

`C=C(C)[C@H]1Cc2c(ccc3c2O[C@@H]2COc4cc(OC)c(OC)cc4[C@@H]2C3=O)O1` [rotenone]: the “loss of OCR / inhibition of mitochondrial respiration in isolated mitochondria” value in the data set on isolated mitochondria is recorded as “immediate; also recorded: directly inhibit mitochondrial respiration in minutes”. The CC50 at 12 h in data set [1] (after 12 hours, read-out: TC50 (dose dependence of oxygen uptake)) amounted to 12.5 µM. Also, the “oxygen uptake, % of normal respiration” value with HepG2/C3A cells [2] (1 μM, 12 hours exposure) is on record as 35%; in the data set on HepG2/C3A cells [2] (50 μM, 12 hours exposure), 27%; in the data set with HepG2/C3A cells [2] (200 μM, 12 hours exposure), 15%. Also, in the data set on HepG2/C3A cells [2] (50 μM), the “reduction of oxygen uptake” value was 80%. Besides, the “time to onset of mitochondrial damage” value in the data set with HepG2/C3A cells [2] (0.2 mM) was at most 6 min. For the same compound, in the data set with HepG2/C3A cells [2] (1, 50, 200 μM), the “time within which the majority of the effect on oxygen uptake occurred” value was at most 60 min. For the same compound, the “time to onset of mitochondrial damage, in words” value in the data set with HepG2/C3A cells [2] (dose-dependent) is reported as “in minutes rather than hours”. Moreover, in the data set with HepG2/C3A cells [3], the “increase in apoptosis (TUNEL)” value is 14 fold and 14±2 fold. Besides, the “decrease in ATP/ADP ratio” value in the data set with HepG2/C3A cells [4] is 47%.
For the compound `Cc1c(C)c2c(c(C)c1O)CCC(C)(COc1ccc(CC3SC(=O)NC3=O)cc1)O2` (stereo not shown) [troglitazone], in the data set on HepG2/C3A organoids, the “cell death (Live/Dead)” value is given as “Less than 5%”. Further, the “cell viability compared with untreated control” value in the data set on HepG2/C3A organoids is “not significantly different from untreated control”. In addition, in data set [1], the CC50 at 24 h is 285 µM. The “reduction of oxygen uptake” value in the data set on HepG2/C3A cells [2] (50 μM) is on record as 10%. The “oxygen uptake, % of normal respiration” value in the data set on HepG2/C3A cells [2] (350 μM, 24 hours exposure) is listed as 32%; in the data set with HepG2/C3A cells [2] (500 μM, 24 hours exposure), 15%; in the data set with HepG2/C3A cells [2] (2000 μM, 24 hours exposure) it was 8%. Besides, in the data set with HepG2/C3A cells [5], the “increase in intracellular accumulation of bile acids / CDF staining (cholestasis)” value was 4.5 fold and 4.5±0.6 fold.
